Results: US7148353B2 (priority 2003, dated 2006)

Target: central benzodiazepine receptors
Assay: binding to central benzodiazepine receptors, displacement of 3H-flunitrazepam (test of Speth et al.)
Conditions: Table 1a

Row | SMILES | IC50 [nM]
1 | CC(=O)Cc1c(-c2ccc(C)cc2)nc2ccc(C)cn12 [Example 2d, 1-(6-Methyl-2-p-tolyl-imidazo[1,2-a]pyridin-3-yl)-propan-2-one] | 439
2 | Cc1ccc(-c2nc3ccc(C)cn3c2CC(=O)c2ccc(Cl)cc2)cc1 [Example 3d, 1-(4-Chloro-phenyl)-2-(6-methyl-2-p-tolyl-imidazo[1,2-a]pyridin-3-yl)-ethanone] | 4060
3 | Cc1ccc(-c2nc3ccc(C)cn3c2CC(=O)c2ccccc2)cc1 [Example 4d, 2-(6-Methyl-2-p-tolyl-imidazo[1,2-a]pyridin-3-yl)-1-phenyl-ethanone] | 1750
4 | CCCCCC(=O)Cc1c(-c2ccc(C)cc2)nc2ccc(C)cn12 [Example 5d, 1-(6-Methyl-2-p-tolyl-imidazo[1,2-a]pyridin-3-yl)-heptan-2-one] | 420
5 | Cc1ccc(-c2nc3ccc(C)cn3c2CC(=O)CC(C)C)cc1 [—CH2CH(CH3)2] | > 10000

Target: peripheral benzodiazepine receptors (Rattus norvegicus, UniProt P16257)
Sequence (P16257 whole entry): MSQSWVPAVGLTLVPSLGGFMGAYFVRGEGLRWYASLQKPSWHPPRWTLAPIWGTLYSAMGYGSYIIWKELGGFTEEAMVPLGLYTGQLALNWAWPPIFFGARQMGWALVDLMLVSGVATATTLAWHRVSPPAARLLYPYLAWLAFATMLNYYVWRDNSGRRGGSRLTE
Assay: biochemical
Assay type: binding
Conditions: IC50 (nM) peripheral, Table 1a
Method: Compounds of the invention were assessed for their binding to the benzodiazepine receptor by the test of Speth et al. [Life Sci. 24, 351 (1979)] for central benzodiazepine receptors and LeFur et al. [Life Sci. 33, 449 (1983)] for peripheral receptors. The compounds were tested first at 1.0E-09, 1.0E-07 and 1.0E-05 M in single determination. […] The specific ligand binding to the receptor is defined as the difference between the total binding and the nonspecific binding determined in the presence of an excess of unlabelled ligand. In each experiment, the respective reference compound was tested concurrently with the test compounds in order to assess the assay suitability. It was tested at several concentrations (for IC50 value determination), and the data were compared with historical values. The assay was rendered valid if suitability criteria were met.

Row | SMILES | IC50 [nM]
6 | Cc1ccc(-c2nc3ccc(C)cn3c2CC(=O)c2ccc(Cl)cc2)cc1 [Example 3d, 1-(4-Chloro-phenyl)-2-(6-methyl-2-p-tolyl-imidazo[1,2-a]pyridin-3-yl)-ethanone] | 594
7 | Cc1ccc(-c2nc3ccc(C)cn3c2CC(=O)c2ccccc2)cc1 [Example 4d, 2-(6-Methyl-2-p-tolyl-imidazo[1,2-a]pyridin-3-yl)-1-phenyl-ethanone] | 386

Same assay, conditions: Table 1a; read-out: IC50 (nM) peripheral

Row | SMILES | IC50 [nM]
8 | Cc1ccc(-c2nc3ccc(C)cn3c2CC(=O)C2CCCC2)cc1 | 310
9 | Cc1ccc(-c2nc3ccc(C)cn3c2CC(=O)C(C)C)cc1 | 820
10 | Cc1ccc(-c2nc3ccc(C)cn3c2CC(=O)C2CC2)cc1 | 560
11 | Cc1ccc(-c2nc3ccc(C)cn3c2CC(=O)c2ccsc2)cc1 | 240
12 | Cc1ccc(-c2nc3ccc(C)cn3c2CC(=O)c2nccs2)cc1 | 1600
13 | Cc1ccc(-c2nc3ccc(C)cn3c2CC(=O)c2ccco2)cc1 | 1600
14 | Cc1ccc(-c2nc3ccc(C)cn3c2CC(=O)c2cncnc2)cc1 | 3400
15 | Cc1ccc(-c2nc3ccc(C)cn3c2CC(=O)c2sc(C)nc2C)cc1 | 2000
16 | Cc1ccc(-c2nc3ccc(C)cn3c2CC(=O)c2ccoc2)cc1 | 400
17 | Cc1ccc(-c2nc3ccc(C)cn3c2CC(=O)c2c(C)nn(C)c2C)cc1 | > 10000
18 | Cc1ccc(-c2nc3ccc(C)cn3c2CC(=O)c2nn(-c3ccccc3)nc2C)cc1 | 7600
19 | Cc1ccc(-c2nc3ccc(C)cn3c2CC(=O)c2c(C)nn(-c3ccccc3)c2C)cc1 | > 10000
20 | Cc1ccc(-c2nc3ccc(C)cn3c2CC(=O)c2c(C)nc3cc(C)ccn23)cc1 | 210
21 | Cc1ccc(-c2nc3ccc(C)cn3c2CC(=O)c2cc3ccccc3s2)cc1 | 220
22 | Cc1ccc(-c2nc3ccc(C)cn3c2CC(=O)c2cc3c(C)nn(C)c3s2)cc1 | 2100
23 | Cc1ccc(-c2nc3ccc(C)cn3c2CC(=O)Cc2cccs2)cc1 | 59
24 | Cc1ccc(-c2nc3ccc(C)cn3c2CC(=O)C2COc3ccccc3O2)cc1 (stereo not shown) | 32
25 | Cc1ccc(-c2nc3ccc(C)cn3c2CC(=O)c2snnc2C)cc1 | 320
26 | Cc1ccc(-c2nc3ccc(C)cn3c2CC(=O)c2sccc2Cl)cc1 | 840
27 | Cc1ccc(-c2nc3ccc(C)cn3c2CC(=O)c2cncn2C)cc1 | 3100
28 | Cc1ccc(-c2nc3ccc(C)cn3c2CC(=O)c2c(C)noc2C)cc1 | 1200

Row | SMILES | IC50 [nM]
29 | Cc1ccc(-c2nc3ccc(C)cn3c2CC(=O)c2scc(S(C)(=O)=O)c2Cl)cc1 | 730
30 | Cc1ccc(-c2nc3ccc(C)cn3c2CC(=O)c2cc(C)nn2C)cc1 | 810
31 | Cc1ccc(-c2nc3ccc(C)cn3c2CC(=O)c2cc(C)on2)cc1 | 560
32 | Cc1ccc(-c2nc3ccc(C)cn3c2CC(=O)c2cn(C)cn2)cc1 | > 10000
33 | Cc1ccc(-c2nc3ccc(C)cn3c2CC(=O)c2csc(-c3cccs3)n2)cc1 | > 10000
34 | Cc1ccc(-c2nc3ccc(C)cn3c2CC(=O)c2sccc2C)cc1 | 230
35 | Cc1ccc(-c2nc3ccc(C)cn3c2CC(=O)c2nsc(Cl)c2Cl)cc1 | 1700
36 | Cc1ccc(-c2nc3ccc(C)cn3c2CC(=O)c2ccc(C)s2)cc1 | 1800
37 | Cc1ccc(-c2nc3ccc(C)cn3c2CC(=O)c2cc(C)n(C)n2)cc1 | 1300
38 | Cc1ccc(-c2nc3ccc(C)cn3c2CC(=O)c2nccn2C)cc1 | > 10000
39 | CCn1nc(C)c(Br)c1C(=O)Cc1c(-c2ccc(C)cc2)nc2ccc(C)cn12 | 2100
40 | Cc1ccc(-c2nc3ccc(C)cn3c2CC(=O)c2nnn(C)c2C)cc1 | > 10000
41 | CSc1ccc(C(=O)Cc2c(-c3ccc(C)cc3)nc3ccc(C)cn23)s1 | 6000
42 | Cc1ccc(-c2nc3ccc(C)cn3c2CC(=O)c2cn(-c3cccc(C)n3)cn2)cc1 | 6600
43 | Cc1ccc(-c2nc3ccc(C)cn3c2CC(=O)CCc2ccccc2)cc1 | 290
44 | CC(=O)Cc1c(-c2ccc(C)cc2)nc2ccc(C)cn12 [Example 2d, 1-(6-Methyl-2-p-tolyl-imidazo[1,2-a]pyridin-3-yl)-propan-2-one] | 231
45 | CCCCCC(=O)Cc1c(-c2ccc(C)cc2)nc2ccc(C)cn12 [Example 5d, 1-(6-Methyl-2-p-tolyl-imidazo[1,2-a]pyridin-3-yl)-heptan-2-one] | 269
46 | Cc1ccc(-c2nc3ccc(C)cn3c2CC(=O)c2cccs2)cc1 [drawing 97] | 153
47 | COc1ccsc1C(=O)Cc1c(-c2ccc(C)cc2)nc2ccc(C)cn12 [drawing 131] | 180
48 | Cc1ccc(-c2nc3ccc(C)cn3c2CC(=O)CC(C)C)cc1 [—CH2CH(CH3)2] | 820

Same assay, conditions: Table 1b; read-out: IC50 (nM) peripheral

Row | SMILES | IC50 [nM]
49 | Cc1cc(Cl)cn2c(CC(=O)c3ccoc3)c(-c3ccc(Cl)cc3)nc12 | 350
50 | Cc1cc(Cl)cn2c(CC(=O)c3cccs3)c(-c3ccc(Cl)cc3)nc12 | 590
51 | O=C(Cc1c(-c2ccc(Cl)cc2)nc2ccccn12)c1cccs1 | 2600
52 | O=C(Cc1c(-c2ccc(Cl)cc2)nc2ccc(Cl)cn12)c1cccs1 | 290
53 | COc1ccc(-c2nc3ccc(C)cn3c2CC(=O)c2cc(C)nn2C)cc1 | 2300
54 | COc1ccc(-c2nc3ccc(C)cn3c2CC(=O)c2cccs2)cc1 | 2400

Same assay, conditions: Table 2; read-out: IC50 (nM) peripheral

Row | SMILES | IC50 [nM]
55 | Cc1ccc(-c2nc3ccc(C)cn3c2C2CCCNC2=O)cc1 (stereo not shown) | > 10000
56 | Cc1ccc(-c2nc3ccc(C)cn3c2C2CC=CCN(C)C2=O)cc1 (stereo not shown) | 210
57 | Cc1ccc(-c2nc3ccc(C)cn3c2C2CCCN(C)C2=O)cc1 (stereo not shown) [drawing 151] | 1240
58 | Cc1ccc(-c2nc3ccc(C)cn3c2C2CCCN(C)C2=O)cc1 (stereo not shown) [drawing 155] | 1500
59 | Cc1ccc(-c2nc3ccc(C)cn3c2C2CCCN(C)C2=O)cc1 (stereo not shown) [drawing 156] | > 10000

Test system: not listed separately
Assay: maze test, which tests anxiety
Assay type: in vivo
Conditions: at 10 mg/kg
Method: The compounds of Example 1d (also found in Example 6d), Example 22d, and Example 35d, were also tested in vivo using the maze test, which tests anxiety [Montgomery, J. Comparative and Physiological Psychology 48, 254–60 (1955); Handley et al., Naunyn-Schmiedeberg's Archives of Pharmacology 327, 1–5 (1984); Lister, Psychopharm. 92, 180–85 (1987); Pellow et al., J. Neuroscience Methods 14, 149–67 (1985); Rodgers et al., Ethology and Psychopharmacology, S. J. Cooper and C. A. Hendrie (eds), John Wiley & Sons, Ltd., 9–43 (1994); and Trullas et al., Psychopharm. 111, 323–31 (1993)]. The results of the maze test for these compounds are found in FIGS. 1a, 1b, 2a, 2b, 3a, and 3b. FIGS. 1a, 2a, and 3a are graphs of the Number of Entries in Open Arms vs. mg/kg (dose of administered compound). FIGS. 1b, 2b, and 3b plot the Percent of Time Spent in Open Arms vs. mg/kg (dose of administered compound). […] The results of the maze test are accepted by persons of skill in the art as predictive of therapeutic utility.

Row | SMILES | maze test activity (Number of Entries in Open Arms, Percent of Time Spent in Open Arms)
60 | Cc1ccc(-c2nc3ccc(C)cn3c2CC(=O)c2cccs2)cc1 [Example 1d, 2-(6-Methyl-2-p-tolyl-imidazo[1,2-a]pyridin-3-yl)-1-thiophen-2-yl-ethanone] | statistically significant activity
61 | COc1ccsc1C(=O)Cc1c(-c2ccc(C)cc2)nc2ccc(C)cn12 [Example 22d, 1-(3-Methoxy-thiophen-2-yl)-2-(6-methyl-2-p-tolyl-imidazo[1,2-a]pyridin-3-yl)-ethanone] | statistically significant activity
